This is an account of results in US20240109917A1 (ACTELION PHARMACEUTICALS LTD, priority 2020, published 2024).

The term pIC50 denotes −log10 of the IC50, conventionally taken in molar units.

In assay [1] the target is His6-TEV-PDGFRβ (557-1016) (Homo sapiens (Human), UniProt P09619). Put plainly: PDGFRβ HTRF Assay. The class given is biochemical. To be noted: read-out: PDGFR HTRF IC50. In short, it runs like this:
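HTRF KinEASE-TK readout (665/620 nm ratio) of TK-biotin substrate phosphorylation by His-tagged PDGFRβ kinase domain. Enzyme and inhibitor preincubated 30 min, then ATP/substrate added for 3 h at room temperature before 60 min EDTA quench/detection.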

The target of the next assay is PDGFRβ (Rattus norvegicus (Rat), UniProt Q05030). The experiment in a line: PDGFRβ Cellular Assay (PDGFRb P-Y751 HTRF in A10 cells stimulated with PDGF-BB). The assay is classed as cell-based. In short, it runs like this:
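Phospho-Y751 PDGFRβ was measured by HTRF in lysates of A10 rat cells. Cells received compound for 3 hours before PDGF-BB stimulation (100 ng/mL working stock).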

pIC50: −log10 of the molar value. Read-outs that look alike come from different tables or passages of the source.

Chain of PDGFRβ (Q05030 32-1097): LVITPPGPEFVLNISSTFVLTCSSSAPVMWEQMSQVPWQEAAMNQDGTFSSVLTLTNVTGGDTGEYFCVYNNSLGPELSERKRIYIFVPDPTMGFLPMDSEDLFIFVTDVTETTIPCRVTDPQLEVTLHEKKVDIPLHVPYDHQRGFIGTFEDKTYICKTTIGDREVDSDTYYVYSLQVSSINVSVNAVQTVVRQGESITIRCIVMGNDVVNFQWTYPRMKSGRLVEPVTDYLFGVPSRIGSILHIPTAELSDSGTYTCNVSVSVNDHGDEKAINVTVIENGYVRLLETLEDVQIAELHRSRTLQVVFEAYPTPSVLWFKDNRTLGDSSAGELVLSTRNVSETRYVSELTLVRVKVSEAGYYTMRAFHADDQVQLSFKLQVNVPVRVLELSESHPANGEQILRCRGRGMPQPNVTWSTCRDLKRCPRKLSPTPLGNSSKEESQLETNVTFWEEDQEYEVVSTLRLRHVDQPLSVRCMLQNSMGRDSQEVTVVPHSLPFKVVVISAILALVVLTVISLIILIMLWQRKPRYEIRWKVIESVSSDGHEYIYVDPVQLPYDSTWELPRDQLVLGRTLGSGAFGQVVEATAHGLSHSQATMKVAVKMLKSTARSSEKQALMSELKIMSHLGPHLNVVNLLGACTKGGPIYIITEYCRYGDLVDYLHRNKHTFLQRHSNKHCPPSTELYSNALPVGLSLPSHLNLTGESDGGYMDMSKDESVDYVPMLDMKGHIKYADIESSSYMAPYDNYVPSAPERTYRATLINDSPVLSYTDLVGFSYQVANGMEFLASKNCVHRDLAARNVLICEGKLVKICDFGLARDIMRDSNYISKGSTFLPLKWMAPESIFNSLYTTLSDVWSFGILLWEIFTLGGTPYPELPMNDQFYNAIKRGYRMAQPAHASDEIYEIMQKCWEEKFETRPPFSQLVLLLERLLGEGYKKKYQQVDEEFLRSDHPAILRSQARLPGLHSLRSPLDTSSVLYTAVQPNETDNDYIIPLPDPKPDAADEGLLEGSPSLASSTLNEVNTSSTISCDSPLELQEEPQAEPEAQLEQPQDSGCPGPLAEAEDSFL
Chain of His6-TEV-PDGFRβ (557-1016) (P09619 557-1016): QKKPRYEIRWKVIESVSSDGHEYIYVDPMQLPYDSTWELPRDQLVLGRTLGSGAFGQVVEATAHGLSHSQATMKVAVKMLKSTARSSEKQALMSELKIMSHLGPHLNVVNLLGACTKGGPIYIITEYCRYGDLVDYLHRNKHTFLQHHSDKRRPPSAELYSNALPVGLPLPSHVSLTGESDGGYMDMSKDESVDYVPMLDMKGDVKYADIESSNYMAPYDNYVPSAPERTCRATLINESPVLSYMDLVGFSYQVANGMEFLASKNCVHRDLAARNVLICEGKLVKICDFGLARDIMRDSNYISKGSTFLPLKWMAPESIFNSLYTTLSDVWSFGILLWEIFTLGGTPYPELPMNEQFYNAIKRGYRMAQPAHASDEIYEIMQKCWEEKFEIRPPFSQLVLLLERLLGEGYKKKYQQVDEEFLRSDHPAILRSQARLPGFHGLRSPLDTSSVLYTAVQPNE

Regarding `COc1ncccc1-c1cn2ncc(C(=O)Nc3cc(NC(=O)CN4CCOCC45CCC5)cnc3C)c2s1` [Example 310, N-(5-(2-(8-oxa-5-azaspiro[3.5]nonan-5-yl)acetamido)-2-methylpyridin-3-yl)-2-(2-methoxypyridin-3-yl)pyrazolo[5,1-b]thiazole-7-carboxamide], the pIC50 is 9.52 in assay [1] and 8.48 at PDGFRβ (read-out: PDGFR Cellular IC50).
With `CC[C@H]1CN(CC(=O)Nc2cnc(C)c(NC(=O)c3cnn4cc(-c5cccnc5OC)sc34)c2)CCO1` [Example 311, (S)—N-(5-(2-(2-ethylmorpholino)acetamido)-2-methylpyridin-3-yl)-2-(2-methoxypyridin-3-yl)pyrazolo[5,1-b]thiazole-7-carboxamide], the pIC50 in assay [1] was 9.70; at PDGFRβ (read-out: PDGFR Cellular IC50) it was 8.62.
As for `Cc1ncc(NC(=O)CN2CCCC2)cc1NC(=O)c1cnn2cc(-c3cccnc3O)sc12` [Example 312, 2-(2-hydroxypyridin-3-yl)-N-(2-methyl-5-(2-(pyrrolidin-1-yl)acetamido)pyridin-3-yl)pyrazolo[5,1-b]thiazole-7-carboxamide], the values for the pIC50 (in assay [1]; at PDGFRβ (read-out: PDGFR Cellular IC50)) were 8.74 and 6.02, respectively.
Turning to `COc1ncccc1-c1cn2ncc(C(=O)Nc3cc(NC(=O)CN4CCCC4)cnc3C)c2s1` [Example 313, 2-(2-methoxypyridin-3-yl)-N-(2-methyl-5-(2-(pyrrolidin-1-yl)acetamido)pyridin-3-yl)pyrazolo[5,1-b]thiazole-7-carboxamide], the pIC50 was 9.70 in assay [1] and 8.55 at PDGFRβ (read-out: PDGFR Cellular IC50).
Take `Cc1ncc(NC(=O)C2CCCCN2C(C)C)cc1NC(=O)c1cnn2cc(-c3cccnc3O)sc12` (centres unmarked) [Example 314, 2-(2-hydroxypyridin-3-yl)-N-(5-(1-isopropylpiperidine-2-carboxamido)-2-methylpyridin-3-yl)pyrazolo[5,1-b]thiazole-7-carboxamide]: the pIC50 in assay [1] was 8.60; at PDGFRβ (read-out: PDGFR Cellular IC50) it was 6.26.
On to `COc1ncccc1-c1cn2ncc(C(=O)Nc3cc(NC(=O)C4CCCCN4C(C)C)cnc3C)c2s1` (centres unmarked) [Example 315, N-(5-(1-isopropylpiperidine-2-carboxamido)-2-methylpyridin-3-yl)-2-(2-methoxypyridin-3-yl)pyrazolo[5,1-b]thiazole-7-carboxamide], for which the pIC50 in assay [1] was 9.52; at PDGFRβ (read-out: PDGFR Cellular IC50), 8.27.
For `Cc1ncc(NC(=O)[C@@H]2C[C@H](C)CN2C)cc1NC(=O)c1cnn2cc(-c3cccnc3O)sc12` [Example 316, N-(5-((2S,4S)-1,4-dimethylpyrrolidine-2-carboxamido)-2-methylpyridin-3-yl)-2-(2-hydroxypyridin-3-yl)pyrazolo[5,1-b]thiazole-7-carboxamide] the same measures were 8.72 and 7.23.
For `COc1ncccc1-c1cn2ncc(C(=O)Nc3cc(NC(=O)[C@@H]4C[C@H](C)CN4C)cnc3C)c2s1` [Example 317, N-(5-((2S,4S)-1,4-dimethylpyrrolidine-2-carboxamido)-2-methylpyridin-3-yl)-2-(2-methoxypyridin-3-yl)pyrazolo[5,1-b]thiazole-7-carboxamide], the pIC50 is 9.52 in assay [1] and 8.19 on PDGFRβ (read-out: PDGFR Cellular IC50).
On to `COc1ncccc1-c1cn2ncc(C(=O)Nc3cc(NC(=O)CN4CCO[C@H](C)C4)cnc3C)c2s1` [Example 318, (R)-2-(2-methoxypyridin-3-yl)-N-(2-methyl-5-(2-(2-methylmorpholino)acetamido)pyridin-3-yl)pyrazolo[5,1-b]thiazole-7-carboxamide], for which the results for the pIC50 (in assay [1]; on PDGFRβ (PDGFR Cellular IC50)) were 9.52 and 8.42, respectively.
Regarding `COc1ncccc1-c1cn2ncc(C(=O)Nc3cc(NC(=O)CN4CCOC(C)(C)C4)cnc3C)c2s1` [Example 319, N-(5-(2-(2,2-dimethylmorpholino)acetamido)-2-methylpyridin-3-yl)-2-(2-methoxypyridin-3-yl)pyrazolo[5,1-b]thiazole-7-carboxamide], the figures for the negative-log IC50 (pIC50) (in assay [1]; at PDGFRβ (read-out: PDGFR Cellular IC50)) were 9.52 and 8.57, respectively.
